The supplement of paper PMC10307832

Assays:
Assay in all cases: relative viability (nuclei count vs DMSO), 5 days (fraction); higher = more cells survive
Irinotecan + Navitoclax = compound: CCc1c2c(nc3ccc(OC(=O)N4CCC(N5CCCCC5)CC4)cc13)-c1cc3c(c(=O)n1C2)COC(=O)[C@]3(O)CC [Irinotecan] + CC1(C)CCC(c2ccc(Cl)cc2)=C(CN2CCN(c3ccc(C(=O)NS(=O)(=O)c4ccc(N[C@H](CCN5CCOCC5)CSc5ccccc5)c(S(=O)(=O)C(F)(F)F)c4)cc3)CC2)C1 [Navitoclax] (partner 0.5 µM)
Procedure, shortened: (§1)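 Lung cancer cell lines were pin-tool dosed in 1536-well plates on the day after seeding, with either a lone drug or a fixed anchor-drug dose plus five library-drug doses (not always all listed) in √10 steps. Nuclei were counted on 4× images after 5 days. Relative viability is the ratio of treated-well to vehicle-well nuclei counts, with each value a median of duplicate plates.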

Irinotecan + Pemetrexed = compound: CCc1c2c(nc3ccc(OC(=O)N4CCC(N5CCCCC5)CC4)cc13)-c1cc3c(c(=O)n1C2)COC(=O)[C@]3(O)CC [Irinotecan] + Nc1nc2[nH]cc(CCc3ccc(C(=O)N[C@@H](CCC(=O)O)C(=O)O)cc3)c2c(=O)[nH]1 [Pemetrexed] (partner 0.2 µM)
Procedure, shortened: as §1

Irinotecan + Palbociclib = compound: CCc1c2c(nc3ccc(OC(=O)N4CCC(N5CCCCC5)CC4)cc13)-c1cc3c(c(=O)n1C2)COC(=O)[C@]3(O)CC [Irinotecan] + CC(=O)c1c(C)c2cnc(Nc3ccc(N4CCNCC4)cn3)nc2n(C2CCCC2)c1=O [Palbociclib] (partner 0.5 µM)
Procedure, shortened: as §1

RU-SKI 43 + Dasatinib = compound: CC[C@@H](C)CNCC(=O)N1CCC2=C([C@@H]1COC3=CC=CC(=C3)C)C=CS2 [RU-SKI 43] + Cc1nc(Nc2ncc(C(=O)Nc3c(C)cccc3Cl)s2)cc(N2CCN(CCO)CC2)n1 [Dasatinib] (partner 0.075 µM)
Procedure, shortened: as §1

Cell Line	relative viability (Irinotecan + Navitoclax; first compound 0.6325 µM)	relative viability (Irinotecan + Navitoclax; first compound 2 µM)	relative viability (Irinotecan + Navitoclax; first compound 6.325 µM)	relative viability (Irinotecan + Navitoclax; first compound 20 µM)	relative viability (Irinotecan + Pemetrexed; first compound 0.6325 µM)	relative viability (Irinotecan + Pemetrexed; first compound 2 µM)	relative viability (Irinotecan + Pemetrexed; first compound 6.325 µM)	relative viability (Irinotecan + Pemetrexed; first compound 20 µM)	relative viability (Irinotecan + Palbociclib; first compound 0.6325 µM)	relative viability (Irinotecan + Palbociclib; first compound 2 µM)	relative viability (Irinotecan + Palbociclib; first compound 6.325 µM)	relative viability (Irinotecan + Palbociclib; first compound 20 µM)	relative viability (RU-SKI 43 + Dasatinib; first compound 0.1 µM)	relative viability (RU-SKI 43 + Dasatinib; first compound 0.3162 µM)	relative viability (RU-SKI 43 + Dasatinib; first compound 1 µM)	relative viability (RU-SKI 43 + Dasatinib; first compound 3.162 µM)	relative viability (RU-SKI 43 + Dasatinib; first compound 10 µM)
IA-LM	0.574	0.246	0.15	0.0454	–	–	–	–	–	–	–	–	–	–	–	–	–
LC-2-ad	0.287	0.282	0.169	0.167	0.325	0.271	0.259	0.151	0.407	0.371	0.316	0.251	0.587	0.634	0.77	0.605	0.552
LCLC-97TM1	0.254	0.256	0.218	0.163	0.124	0.196	0.129	0.133	0.114	0.0978	0.113	0.108	0.961	0.919	0.974	0.811	0.796
LCLC-103H	–	–	–	–	0.477	0.471	0.508	0.516	0.452	0.412	0.446	0.5	0.502	0.481	0.64	0.453	0.49
LK-2	0.858	0.754	0.406	0.255	0.227	0.343	0.182	0.336	0.594	0.72	0.227	0.245	0.308	0.248	0.315	0.295	0.251
LOU-NH91	0.578	0.526	0.32	0.275	0.392	0.402	0.338	0.182	0.509	0.494	0.418	0.263	0.553	0.604	0.624	0.581	0.554
LU99A	0.188	0.231	0.195	0.242	0.162	0.126	0.155	0.109	0.173	0.179	0.153	0.172	0.486	0.614	0.602	0.587	0.599
LXF-289	0.891	0.439	0.153	0.175	0.733	0.854	0.54	0.212	0.527	0.279	0.251	0.23	0.217	0.21	0.218	0.231	0.187
NCI-H23	0.782	0.505	0.26	0.22	0.484	0.597	0.268	0.256	0.446	0.332	0.249	0.254	0.691	0.809	0.797	0.868	0.515
NCI-H322M	0.733	0.453	0.348	0.338	0.568	0.659	0.518	0.266	0.527	0.502	0.458	0.336	0.256	0.238	0.255	0.249	0.259
NCI-H358	–	–	–	–	0.167	0.19	0.146	0.167	0.123	0.143	0.108	0.0947	0.166	0.127	0.131	0.151	0.167
NCI-H441	0.206	0.383	0.304	0.463	0.261	0.178	0.222	0.241	0.207	0.211	0.218	0.175	0.615	0.656	0.553	0.582	0.386
NCI-H522	–	–	–	–	0.966	0.824	0.566	0.498	0.872	0.585	0.413	0.475	0.896	0.954	1.11	1.03	0.828
NCI-H596	0.932	0.752	0.412	0.443	0.471	0.608	0.595	0.748	–	–	–	–	0.635	0.646	0.62	0.653	0.587
NCI-H650	–	–	–	–	0.749	0.838	0.229	0.201	0.188	0.195	0.19	0.257	0.484	0.45	0.468	0.398	0.45
NCI-H661	–	–	–	–	0.886	0.653	0.41	0.232	0.397	0.435	0.457	0.142	0.923	0.964	0.931	0.83	0.843
NCI-H727	0.225	0.358	0.319	0.308	–	–	–	–	0.665	0.412	0.52	0.653	0.438	0.285	0.426	0.473	0.307
NCI-H1299	0.886	0.845	0.431	0.303	–	–	–	–	–	–	–	–	–	–	–	–	–
NCI-H1563	–	–	–	–	0.649	0.777	0.756	0.671	–	–	–	–	0.4	0.409	0.534	0.404	0.467
NCI-H1623	–	–	–	–	–	–	–	–	–	–	–	–	0.513	0.514	0.668	0.541	0.468
NCI-H1648	–	–	–	–	0.703	0.68	0.453	0.423	0.254	0.303	0.346	0.355	–	–	–	–	–
NCI-H1703	1.16	1.45	0.514	0.105	–	–	–	–	–	–	–	–	–	–	–	–	–
NCI-H2342	–	–	–	–	0.452	0.807	0.845	0.461	0.557	0.486	0.509	0.495	0.34	0.313	0.321	0.319	0.317
SW 900	–	–	–	–	–	0.538	0.36	0.406	–	0.42	0.274	0.416	0.565	0.679	0.769	0.46	0.423
